Results taken from patent publication US4206215A, “Antimicrobial bis-[4-(substituted-amino)-1-pyridinium]alkanes” (Sterling Drug Inc., priority 1977, dated 1980).

What was measured:
[1] = test system: S. Aureus Smith; assay: In vitro antibacterial activity, MIC (modified Autotiter method); format: cell-based, Staphylococcus aureus; conditions: Staphylococcus aureus, 20 h, 18-20 hours at 37° C.; read-out: MIC S. Aureus Smith
Method in brief: (§1)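 Modified Goss Autotiter dilution. 1,000 mcg./ml. solution → twofold series in sterile H2O → inoculated 2x glucose semisynthetic medium added. Tested finals 500–0.06 mcg./ml.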

[2] = test system: E. coli 100/B22; assay: as above; format: cell-based, Escherichia coli; conditions: Escherichia coli, 100/B22, 20 h, 18-20 hours at 37° C.; read-out: MIC E. coli 100/B22
Method in brief: as §1

[3] = test system: E. coli AB1932-1; assay: as above; format: cell-based, Escherichia coli; conditions: Escherichia coli, AB19321, 20 h, 18-20 hours at 37° C.; read-out: MIC E. coli AB1932-1
Method in brief: as §1

[4] = test system: E. coli Vogel; assay: as above; format: cell-based, Escherichia coli; conditions: Escherichia coli, 20 h, 18-20 hours at 37° C.; read-out: MIC E. coli Vogel
Method in brief: as §1

[5] = test system: K. pneum. 39645; assay: as above; format: cell-based, Klebsiella pneumoniae; conditions: Klebsiella pneumoniae, 20 h, 18-20 hours at 37° C.; read-out: MIC K. pneum. 39645
Method in brief: as §1

[6] = test system: P. mirab. MGH-1; assay: as above; format: cell-based, Proteus mirabilis; conditions: Proteus mirabilis, 20 h, 18-20 hours at 37° C.; read-out: MIC P. mirab. MGH-1
Method in brief: as §1

[7] = test system: Ps. aerug. MGH-2; assay: as above; format: cell-based, Pseudomonas aeruginosa; conditions: Pseudomonas aeruginosa, 20 h, 18-20 hours at 37° C.; read-out: MIC Ps. aerug. MGH-2
Method in brief: as §1

[8] = test system: S. pyogen. C203; assay: as above; format: cell-based, Streptococcus pyogenes; conditions: Streptococcus pyogenes, 20 h, 18-20 hours at 37° C.; read-out: MIC S. pyogen. C203
Method in brief: as §1

[9] = test system: A. niger 16404; assay: In vitro antifungal activity, MIC (modified Autotiter method); format: cell-based, Aspergillus niger; conditions: Aspergillus niger, 16404, 20 h, 18-20 hours at 37° C.; read-out: MIC A. niger 16404
Method in brief: as §1

[10] = test system: C. albicans 10231; assay: as above; format: cell-based, Candida albicans; conditions: Candida albicans, 10231, 20 h, 18-20 hours at 37° C.; read-out: MIC C. albicans 10231
Method in brief: as §1

[11] = test system: C. albicans Wisc.; assay: as above; format: cell-based, Candida albicans; conditions: Candida albicans, 20 h, 18-20 hours at 37° C.; read-out: MIC C. albicans Wisc.
Method in brief: as §1

[12] = test system: T. menta. 9129; assay: as above; format: cell-based, Trichophyton mentagrophytes; conditions: Trichophyton mentagrophytes, 20 h, 18-20 hours at 37° C.; read-out: MIC T. menta. 9129
Method in brief: as §1

SMILES	MIC [1] [µg/mL]	MIC [2] [µg/mL]	MIC [3] [µg/mL]	MIC [4] [µg/mL]	MIC [5] [µg/mL]	MIC [6] [µg/mL]	MIC [7] [µg/mL]	MIC [8] [µg/mL]	MIC [9] [µg/mL]	MIC [10] [µg/mL]	MIC [11] [µg/mL]	MIC [12] [µg/mL]
CCCCCCCCCCNc1cc[n+](CCCCCC[n+]2ccc(NCCCCCCCCCC)cc2)cc1 [Example 64B, 1,6-bis-[4-(decylamino)-1-pyridinium]hexane dibromide]	1	7.8	1.95	1.95	3.9	1.95	7.8	1	7.8	1.95	3.9	1
Clc1ccc(Nc2cc[n+](CCCC[n+]3ccc(Nc4ccc(Cl)cc4)cc3)cc2)cc1 [Example 76C, 1,4-bis-[4-(p-chlorophenylamino)-1-pyridinium]butane dimethanesulfonate]	7.8	15.6	7.8	15.6	> 250	> 250	> 125	1.95	> 250	125	12.5	62.5
CCCCCCCCCCNc1cc[n+](CCCCCCCCCC[n+]2ccc(NCCCCCCCCCC)cc2)cc1 [Example 68, 1,10-bis-[4-(decylamino)-1-pyridinium]decane dibromide]	1.95	15.6	15.6	7.8	31.3	7.8	15.6	3.9	15.6	15.6	15.6	3.9
CCCCCCCCCCCCNc1cc[n+](CCCCCCCC[n+]2ccc(NCCCCCCCCCCCC)cc2)cc1 [Example 72, 1,8-bis-[4-(dodecylamino)-1-pyridinium]octane dibromide]	7.8	> 62.5	62.5	31.3	> 62.5	62.5	> 62.5	15.6	> 62.5	31.3	31.3	7.8
CCCCCCCCCNc1cc[n+](CCCCCCCCC[n+]2ccc(NCCCCCCCCC)cc2)cc1 [Example 50, 1,9-bis-[4-(nonylamino)-1-pyridinium]nonane dibromide]	1.95	1.95	3.9	1.95	3.9	3.9	3.9	1.95	7.8	3.9	3.9	1.95
CCCCCCCCCNc1cc[n+](CCCCCCCCCC[n+]2ccc(NCCCCCCCCC)cc2)cc1 [Example 51, 1,10-bis-[4-(nonylamino)-1-pyridinium]decane dibromide]	1.95	3.9	3.9	1.95	3.9	3.9	3.9	1.95	7.8	3.9	3.9	1.95
CCCCCCCCCCCCNc1cc[n+](CCCCCCC[n+]2ccc(NCCCCCCCCCCCC)cc2)cc1 [Example 71, 1,7-bis-[4-(dodecylamino)-1-pyridinium]heptane dibromide]	3.9	62.5	62.5	62.5	> 62.5	62.5	62.5	7.8	62.5	62.5	62.5	7.8
